Experimental findings from PubChem BioAssay (NCI) are described below.

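Protocol summary: plate cells (96-well), add compound at 5 concentrations, incubate 48 h, interpolate endpoints linearly. Definition used: TGI = concentration required for complete inhibition of growth.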

Test systems include PC-3 prostate; NCI-H226 lung; 786-0 renal; HOP-92 NSCLC; NCI-H23 lung; MDA-N; CAKI-1 renal; RPMI-8226 leukemia; OVCAR-4 ovarian; IGROV1 ovarian; MCF7 breast; SK-MEL-28 melanoma; COLO 205 colon; SNB-19 CNS; NCI/ADR-RES ovarian; A498 renal.
Test in all cases: inhibition of tumour cell growth, NCI panel, 48 h

With `CC(=O)Nc1ccc(NCC(=O)Nn2cnc3ccc(S(=O)(=O)Nc4ccc(NC(C)=O)cc4)cc3c2=O)cc1`, the TGI with PC-3 prostate, in the assay on NCI-H226 lung, in the assay with 786-0 renal, with HOP-92 NSCLC, with NCI-H23 lung and in the assay on MDA-N was greater than 100 µM in each case. Also, the TGI in the assay on CAKI-1 renal, with RPMI-8226 leukemia, in the assay on OVCAR-4 ovarian, in the assay on IGROV1 ovarian, in the assay on MCF7 breast and in the assay with SK-MEL-28 melanoma was greater than 100 µM throughout. The TGI with COLO 205 colon, in the assay with SNB-19 CNS and in the assay on NCI/ADR-RES ovarian was greater than 100 µM throughout.
On to `CC(=O)C(=[N+]=[N-])C(=O)N1CCOC1=O`, for which the TGI in the assay on PC-3 prostate, in the assay on NCI-H226 lung, in the assay with 786-0 renal, in the assay with NCI-H23 lung, in the assay on MDA-N and with A498 renal was greater than 10 µM in each case. Also, the TGI in the assay with CAKI-1 renal, in the assay on RPMI-8226 leukemia, in the assay with OVCAR-4 ovarian, with IGROV1 ovarian, in the assay with MCF7 breast and in the assay on SK-MEL-28 melanoma was greater than 10 µM each time. Moreover, the TGI in the assay on COLO 205 colon, with SNB-19 CNS and in the assay on NCI/ADR-RES ovarian was greater than 10 µM in each case.
Take `CC(C)(O)/C=C\P(=O)(O)O`: the TGI in the assay on PC-3 prostate, in the assay with NCI-H226 lung, with 786-0 renal, with HOP-92 NSCLC, in the assay with NCI-H23 lung and in the assay with MDA-N was greater than 100 µM each time. Besides, the TGI with CAKI-1 renal, in the assay on OVCAR-4 ovarian, in the assay with IGROV1 ovarian, with MCF7 breast, with SK-MEL-28 melanoma and in the assay on COLO 205 colon was greater than 100 µM throughout. Moreover, the TGI in the assay on SNB-19 CNS and with NCI/ADR-RES ovarian was greater than 100 µM in each case.
Consider `CCCNC(=S)/N=C/c1c(O)cc(C)oc1=O`, for which the TGI in the assay with PC-3 prostate, in the assay with NCI-H226 lung, in the assay on 786-0 renal, in the assay on HOP-92 NSCLC, with NCI-H23 lung and in the assay with MDA-N was greater than 100 µM in each case. In addition, the TGI in the assay with CAKI-1 renal, in the assay with OVCAR-4 ovarian, in the assay with IGROV1 ovarian, with MCF7 breast, in the assay with SK-MEL-28 melanoma and with COLO 205 colon was greater than 100 µM each time. The TGI with SNB-19 CNS and in the assay on NCI/ADR-RES ovarian was greater than 100 µM in each case.
Regarding `O=C1C[C@H](c2ccccc2)O[C@@H](c2ccccc2)C1`, the TGI with PC-3 prostate, with NCI-H226 lung, in the assay on 786-0 renal, in the assay on HOP-92 NSCLC, in the assay with NCI-H23 lung and with MDA-N was greater than 100 µM in each case. In addition, the TGI with CAKI-1 renal, with RPMI-8226 leukemia, in the assay on OVCAR-4 ovarian, in the assay with IGROV1 ovarian, with MCF7 breast and with SK-MEL-28 melanoma was greater than 100 µM in each case. The TGI in the assay on COLO 205 colon, in the assay on SNB-19 CNS and in the assay with NCI/ADR-RES ovarian was greater than 100 µM throughout.
With `COC(=O)C(NC(=O)C(CC(=O)OC(C)(C)C)NC(=O)OC(C)(C)C)C(O)c1ccccc1` (stereo unspecified), the TGI with PC-3 prostate, with NCI-H226 lung, in the assay on 786-0 renal, in the assay on NCI-H23 lung, with MDA-N and in the assay on A498 renal was greater than 100 µM in each case. In addition, the TGI in the assay with CAKI-1 renal, in the assay on RPMI-8226 leukemia, in the assay with OVCAR-4 ovarian, in the assay with IGROV1 ovarian, in the assay with MCF7 breast and in the assay on SK-MEL-28 melanoma was greater than 100 µM throughout. The TGI in the assay with COLO 205 colon, with SNB-19 CNS and in the assay on NCI/ADR-RES ovarian was greater than 100 µM throughout.
On to `O=C1NC(N2CCOCC2)=N/C1=C\c1ccc(Cl)cc1`, for which the TGI in the assay with PC-3 prostate, with NCI-H226 lung, in the assay on 786-0 renal, in the assay on HOP-92 NSCLC, in the assay on NCI-H23 lung and with MDA-N was greater than 100 µM in each case. Moreover, the TGI in the assay on CAKI-1 renal, with RPMI-8226 leukemia, with OVCAR-4 ovarian, with IGROV1 ovarian, in the assay on MCF7 breast and in the assay on SK-MEL-28 melanoma was greater than 100 µM throughout. Moreover, the TGI in the assay with COLO 205 colon, in the assay on SNB-19 CNS and in the assay on NCI/ADR-RES ovarian was greater than 100 µM in each case.
Regarding `COc1cc(OC)c2c(c1)OC(c1ccccc1)CC2=O` (stereo unspecified), the TGI in the assay with PC-3 prostate, in the assay on NCI-H226 lung, in the assay on 786-0 renal, with HOP-92 NSCLC, in the assay with NCI-H23 lung and in the assay with MDA-N was greater than 10 µM each time. Besides, the TGI in the assay with CAKI-1 renal, in the assay on RPMI-8226 leukemia, with OVCAR-4 ovarian, in the assay on IGROV1 ovarian, in the assay with MCF7 breast and in the assay on SK-MEL-28 melanoma was greater than 10 µM each time. Besides, the TGI in the assay with COLO 205 colon, in the assay with SNB-19 CNS and in the assay on NCI/ADR-RES ovarian was greater than 10 µM in each case.
In the case of `O=c1oc2ccccc2nc1/C=C(\O)c1ccc(Cl)cc1`, the TGI in the assay with PC-3 prostate, with NCI-H226 lung, with 786-0 renal, in the assay with NCI-H23 lung, with MDA-N and with A498 renal was greater than 100 µM each time. Also, the TGI in the assay with CAKI-1 renal, in the assay on OVCAR-4 ovarian, with IGROV1 ovarian, with MCF7 breast, with COLO 205 colon and in the assay with SNB-19 CNS was greater than 100 µM each time. Moreover, the TGI in the assay with NCI/ADR-RES ovarian is greater than 100 µM.
`O=c1cc(N=Nc2ccc(Br)cc2)[nH]c(=S)[nH]1`: the TGI with PC-3 prostate is greater than 100 µM; in the assay with NCI-H226 lung it was greater than 100 µM; with 786-0 renal it was 17.1 µM; in the assay on HOP-92 NSCLC, 50.5 µM; in the assay on NCI-H23 lung, greater than 100 µM; in the assay on MDA-N, greater than 100 µM. Further, the TGI in the assay with CAKI-1 renal is 23 µM; in the assay on RPMI-8226 leukemia, 57.9 µM; with OVCAR-4 ovarian, 34.3 µM; with IGROV1 ovarian, greater than 100 µM; in the assay on MCF7 breast, 42.7 µM; in the assay on SK-MEL-28 melanoma, 53.2 µM. In addition, the TGI is 45.1 µM in the assay with COLO 205 colon, greater than 100 µM with SNB-19 CNS and greater than 100 µM in the assay with NCI/ADR-RES ovarian.
